System: IL-8
Assay: Expression of IL-8 by epidermal human skin model (EST-1000) after IL-1alpha stimulation
Type: cell-based
Settings: Table 7, 2 wt.-% in vehicle
Protocol: The Expression of IL-8 by epidermal human skin model after IL-1alpha stimulation has been assessed using 3D-Reconstituted Epidermis Models (EST-1000) (Cellsystems GmbH, St. Katharinen, Germany). The EST-1000 samples were equilibrated over night at 37° C. in a 5% CO^2 atmosphere according to manufacturer's instructions. Then, the EST-1000 samples were stimulated by addition of 10 ng/ml IL-1alpha (Peprotech, UK) to the culture medium.
Afterwards, one sample was treated with the vehicle (i.e. squalane, e.g. commercially available under the tradename Fitoderm®), whereas the other sample was treated with a mixture consisting of the vehicle comprising 2 wt.-% of the mixture of example 1 by topical addition to the tissue samples. At distinct time points, 200 ul medium samples were taken and frozen for further analysis. As can be retrieved from the results presented in table, the expression of the pro-inflammatory cytokine IL-8 by the epidermal human skin model (EST-1000) is suppressed by the addition of the composition according to example 1 in a dose dependent manner.
Furthermore, the expression of IL-8 by epidermal human skin model after IL-1alpha stimulation was assessed as outlined above using the single compounds CLA, Syn Coll®, spent grain wax as well as mixtures thereof.

## Conjugated linoleic acid [CLA]
T = 24 h
  Expression of cytokine IL-8, T = 24 h: 8161
T = 0 h
  Expression of cytokine IL-8, t = 0 h: 61
T = 2 h
  Expression of cytokine IL-8, t = 2 h: 2536
T = 4 h
  Expression of cytokine IL-8, t = 4 h: 5056
T = 8 h
  Expression of cytokine IL-8, t = 8 h: 5805
